SMILES strings stand for the structures.

The subject of assay [1] is SGK-1 dependent activation of ENaC-currents in A6 cell monolayers. The assay is described as follows: Functional electrophysiological assay, SGK-1 dependent activation of ENaC currents in A6 cell monolayers (Ussing chamber). Type of assay: cell-based. As to conditions: Xenopus laevis, 0.75 h, hypoosmotic shock 45 min, read-out: IC50 for inhibition of ΔI'sc (amiloride-sensitive ENaC-dependent short circuit current). The procedure: Materials and methods for Ussing chamber measurement of A6 cells: The renal Xenopus laevis cell line A6 (Rafferty, K. A.; Mass culture of amphibia cells: methods and observations concerning stability of cell type. In: Biology of Amphibian Tumors, edited by M. Mizell. New York: Springer-Verlag, 1969, p. 52-81) was used for the experiments. Cells were grown in cell culture flasks (Nunc) at 28° C. in a humidified atmosphere with 4% CO2. The culture medium contained a 7:3 mixture of Leibovitz's L-15 (Sigma-Aldrich)/Coon's (Sigma-Aldrich) media supplemented with 10% fetal bovine serum (PAA), 20% sterile water, 25 mM NaHCO3 (Sigma-Aldrich), 100 U/ml penicillin (PAA) and 100 μg/ml streptomycin (PAA). The osmolality of the medium was 270 mOsml/kg H2O). […] Filters with confluent A6 cells were transferred into a continuously perfused Ussing-chamber, and electrophysiological parameters were measured under open circuit conditions using a transepithelial clamp amplifier (EP Design). Short circuit current (I′sc) was calculated by Ohm's law. […]
To evaluate the effects of SGK inhibitors on ENaC-mediated transepithelial currents, […] monolayers were first equilibrated for 5 min with isoosmotic Ringer-solution from both the luminal and basolateral side of the cell layer. […] ENaC-dependent I′sc after the hypoosmotic shock (I′schypo) was determined by application of amiloride at the end of the experiment. […]

The test system of assay [2] is collagen type X (Col10a1) expression in ATDC5 cells. The assay is described as follows: Chondrocyte hypertrophic differentiation in mouse chondrogenic ATDC5 cells (collagen type X expression). As to conditions: 336 h, 14 days differentiation with BMP2 and T3, Col10a1 by quantitative real-time PCR, read-out: IC50 for the inhibition of collagen type X expression. Type of assay: cell-based. The source says:
The ATDC5 cell assay was used as in vitro model to determine the effects of the compounds of the invention on chondrocyte hypertrophic differentiation by monitoring the expression levels of collagen type X (Col10a1) as specific marker of chondrocyte hypertrophy.
Background: ATDC5 cells are a clonal mouse embryonic cell line derived from multipotent AT805 teratocarcinoma cells (Atsumi T, Miwa Y, Kimata K, Ikawa Y.; A chondrogenic cell line derived from a differentiating culture of AT805 teratocarcinoma cells. Cell Differ. Dev. 30 (1990), 109-116). […] Chondrogenic differentiation can be shown by measuring the expression of the cartilage main collagen (Col2a1) and aggrecan (AGC1) and glycosaminoglycan-staining with Alcian Blue within two weeks after insulin-triggered differentiation, and hypertrophic differentiation can be monitored by the expression of collagen type X (Col10a1), a specific marker of chondrocyte hypertrophy within 21 days of in vitro culture. […] SGK-inhibitors were added to differentiating ATDC5 cells for 14 days and Col10a1 gene expression was quantified to determine effects on chondrocyte hypertrophic differentiation. […]
After two weeks of cell culture, RNA was isolated and converted to cDNA for determination of gene expression by quantitative real-time PCR. […] RNA was isolated in 30 μl of pure water and the RNA content measured by UV-spectroscopy (Nanodrop, Peqlab). […]

The target in assay [3] is recombinant human SGK-1 enzyme (Homo sapiens, UniProt O00141). The assay can be described thus: SGK-1 enzymatic activity assay (substrate phosphorylation, fluorescein-labeled peptide, lab-chip). Type of assay: biochemical. Conditions: ATP 10 μM, peptide substrate 1 μM, 60 min at 37° C., read-out: IC50 for inhibition of SGK-1 enzymatic activity. The source says:
The synthesized fluorescent labeled peptide substrate contained (5(6)-Carboxyfluorescein)-RPRAATF-NH2. The phosphorylated substrate peptide and non-phosphorylated substrate peptide were separated with caliper life science's lab-chip technology based on a micro fluidics method. All fluid flow was established on the chip by applying a vacuum of a few psi to the waste well transporting fluid from various sources through interconnecting channels. Because the phosphoryl group is doubly negatively charged, under the pressure-driven hydrodynamic flow and the voltage-driven flow within the electric field, the fluorescent labeled peptide substrate and its phosphorylation product appear at different times in the detection window to the detection point. Substrate turnover can thus be determined as the ratio of the product peak area and the sum of substrate peak area and product peak area.
The enzyme reaction was carried out in a buffer containing 25 mM Tris-HCl (pH 7.4), 5 mM MgCl2, 2 mM MnCl2, 2 mM DTT, and 0.03% bovine serum albumine. The enzyme was pre-incubated with the test compound for 30 min at 24° C. The kinase reaction was initiated by addition of the substrate mixture containing the peptide substrate (final concentration 1 μM) and ATP (final concentration 10 μM). After 60 min incubation at 37° C., the enzyme reaction was terminated by adding a buffer containing 100 mM Hepes (pH 7.4) and 35 mM EDTA.
For the determination of the compound dose response, a 10 mM DMSO stock solution was diluted and tested in a ten-point, three-fold dilution series run in duplicate beginning at 30 μM final concentration. Data were analyzed using a four-parameter curve fit with a fixed minimum and maximum experimentally defined as the average positive and negative controls on each plate.

Chain of recombinant human SGK-1 enzyme (O00141 whole entry, looked up): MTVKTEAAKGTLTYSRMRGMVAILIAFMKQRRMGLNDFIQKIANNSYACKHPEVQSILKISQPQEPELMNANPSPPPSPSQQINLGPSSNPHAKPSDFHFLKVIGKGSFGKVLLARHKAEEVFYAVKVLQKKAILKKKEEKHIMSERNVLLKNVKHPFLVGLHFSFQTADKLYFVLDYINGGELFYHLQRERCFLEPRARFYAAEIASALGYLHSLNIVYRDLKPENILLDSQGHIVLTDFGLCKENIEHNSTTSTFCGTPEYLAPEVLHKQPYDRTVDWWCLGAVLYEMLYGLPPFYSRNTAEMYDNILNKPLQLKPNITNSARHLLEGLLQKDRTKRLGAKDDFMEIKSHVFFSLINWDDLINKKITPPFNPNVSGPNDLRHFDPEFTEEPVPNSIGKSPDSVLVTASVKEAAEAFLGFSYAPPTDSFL

Consider `Nc1n[nH]c2nc(-c3ccc(NS(=O)(=O)c4cccc(Cl)c4Cl)cc3)cnc12` [Example 1, N-[4-(3-Amino-1H-pyrazolo[3,4-b]pyrazin-6-yl)phenyl]-2,3-dichloro-benzenesulfonamide], for which, in assay [1], the IC50 (usually the concentration at which inhibition is half-maximal) came out at 2100 nM.

For `Nc1n[nH]c2nc(-c3ccc(NS(=O)(=O)c4cc(Cl)ccc4F)c(F)c3)cnc12` [Example 6, N-[4-(3-Amino-1H-pyrazolo[3,4-b]pyrazin-6-yl)-2-fluoro-phenyl]-5-chloro-2-fluoro-benzenesulfonamide], in assay [2], the half-maximal inhibitory concentration (IC50) is 559 nM.

Turning to `O=S(=O)(Nc1ccc(-c2cnc3c(NS(=O)(=O)c4cc(Cl)c(F)cc4F)n[nH]c3n2)cc1)c1cc(Cl)c(F)cc1F` [Example 42, 5-Chloro-N-[4-[3-[(5-chloro-2,4-difluoro-phenyl)sulfonylamino]-1H-pyrazolo[3,4-b]pyrazin-6-yl]phenyl]-2,4-difluoro-benzenesulfonamide], the IC50 in assay [3] was determined as 413 nM.

Take `Cc1nn(C)c(Cl)c1S(=O)(=O)Nc1ccc(-c2cnc3c(NS(=O)(=O)c4c(C)nn(C)c4Cl)n[nH]c3n2)cc1` [Example 43, 5-Chloro-N-[4-[3-[(5-chloro-1,3-dimethyl-pyrazol-4-yl)sulfonylamino]-1H-pyrazolo[3,4-b]pyrazin-6-yl]phenyl]-1,3-dimethyl-pyrazole-4-sulfonamide]: in assay [3], the IC50 was found to be 1050 nM.

For the molecule `N#Cc1ccc(F)c(S(=O)(=O)Nc2ccc(-c3cnc4c(N)n[nH]c4n3)cc2)c1` [Example 45, N-[4-(3-Amino-1H-pyrazolo[3,4-b]pyrazin-6-yl)-phenyl]-5-cyano-2-fluoro-benzenesulfonamide], in assay [3], the IC50 stood at 47 nM.

In the case of `Nc1n[nH]c2nc(-c3ccc(NS(=O)(=O)c4cc(F)cc(F)c4Cl)cc3)cnc12` [Example 60, N-[4-(3-Amino-1H-pyrazolo[3,4-b]pyrazin-6-yl)-phenyl]-2-chloro-3,5-difluoro-benzenesulfonamide], the IC50 in assay [3] is 31 nM.

Regarding `Nc1n[nH]c2nc(-c3ccc(NS(=O)(=O)c4ccc(F)cc4Cl)cc3)cnc12` [Example 61, N-[4-(3-Amino-1H-pyrazolo[3,4-b]pyrazin-6-yl)-phenyl]-2-chloro-4-fluoro-benzenesulfonamide], in assay [3], the IC50 is 18 nM.

(Values after patent US9174993B2, “N-[4-(1H-pyrazolo[3,4-b]pyrazin-6-yl)-phenyl]-sulfonamides and their use as pharmaceuticals” (SANOFI, priority 2011, dated 2015).)
